These results are taken from patent US12358896B2, “LRRK2 inhibitors and methods of making and using thereof” (DENALI THERAPEUTICS INC., priority 2019, dated 2025).

Data set [1] concerns the target LRRK2 G2019S enzyme (Homo sapiens, UniProt Q5S007, G2019S). As to the kind of experiment: LRRK2 G2019S TR-FRET biochemical assay (Biological Example 1). As to conditions: 134 μM ATP, 5 nM LRRK2, LRRKtide substrate. Here is the method:
• LRRK2 G2019S enzyme • Substrate (LRRKtide) • ATP • TR-FRET dilution buffer • pLRRKtide antibody • 384-well assay plate • DMSO Enzyme Reaction Conditions • 50 mM Tris pH 7.5, 10 mM MgCl2, 1 mM EGTA, 0.01% Brij-35, 2 mM DTT • 5 nM LRRK2 • 134 μM ATP • 60 minute reaction time • 23° C. reaction temperature • 10 μL total reaction volume Detection Reaction Conditions • 1×TR-FRET dilution buffer • 10 mM EDTA • 2 nM antibody • 23° C. reaction temperature • 10 μL total reaction volume
Compounds are prepared by initially diluting to 1 mM with DMSO. 35 μL of reference compound solution, 35 μL of test compound solution, and 35 μL HPE are successively added to the source plate (384-well assay plate, Labcyte). The plates are centrifuged at 2500 rpm for 1 minute and sealed in foil. POD is used to perform a 3.162 fold serial dilution and 100 nL of reference compound solution, test compound solution, HPE and ZPE are transferred to assay plates. The assay plate is centrifuged at 2500 rpm for 1 minute, and sealed with foil.
To perform the enzyme reaction, 5 μL of LRRKtide substrate and kinase mixture in assay buffer is added to all wells of the assay plate. The plate is centrifuged to concentrate the mixture at the bottom of the wells. The assay plate is incubated at 23° C. for 20 minutes. Following incubation, 5 μL of 2×ATP in assay buffer is added to each well, and plates are centrifuged to concentrate the mixture at the bottom of the wells. The plate is incubated at 23° C. for 60 minutes.
To perform the detection of the reaction, EDTA completely mixed in TR-FRET dilution buffer is added to antibody reagent. 10 μL of detection reagent is added to all wells of each well of the assay plate and the plate is centrifuged to concentrate the mixture at the bottom of the wells. The plate is then incubated at 23° C. for 60 minutes. Plates are read on Perkin Elmer Envision 2104 instrument in TR-FRET mode using a 340 nm excitation filter, 520 nm fluorescence emission filter, and 490 or 495 nm terbium emission filter.

For data set [2], the target named is T1, MDR1 (P-glycoprotein) (Homo sapiens, UniProt P08183).
T1 construct: expressed in transfected cells; host or cells: MDR1-MDCK cells
T1 sequence (P08183 whole entry): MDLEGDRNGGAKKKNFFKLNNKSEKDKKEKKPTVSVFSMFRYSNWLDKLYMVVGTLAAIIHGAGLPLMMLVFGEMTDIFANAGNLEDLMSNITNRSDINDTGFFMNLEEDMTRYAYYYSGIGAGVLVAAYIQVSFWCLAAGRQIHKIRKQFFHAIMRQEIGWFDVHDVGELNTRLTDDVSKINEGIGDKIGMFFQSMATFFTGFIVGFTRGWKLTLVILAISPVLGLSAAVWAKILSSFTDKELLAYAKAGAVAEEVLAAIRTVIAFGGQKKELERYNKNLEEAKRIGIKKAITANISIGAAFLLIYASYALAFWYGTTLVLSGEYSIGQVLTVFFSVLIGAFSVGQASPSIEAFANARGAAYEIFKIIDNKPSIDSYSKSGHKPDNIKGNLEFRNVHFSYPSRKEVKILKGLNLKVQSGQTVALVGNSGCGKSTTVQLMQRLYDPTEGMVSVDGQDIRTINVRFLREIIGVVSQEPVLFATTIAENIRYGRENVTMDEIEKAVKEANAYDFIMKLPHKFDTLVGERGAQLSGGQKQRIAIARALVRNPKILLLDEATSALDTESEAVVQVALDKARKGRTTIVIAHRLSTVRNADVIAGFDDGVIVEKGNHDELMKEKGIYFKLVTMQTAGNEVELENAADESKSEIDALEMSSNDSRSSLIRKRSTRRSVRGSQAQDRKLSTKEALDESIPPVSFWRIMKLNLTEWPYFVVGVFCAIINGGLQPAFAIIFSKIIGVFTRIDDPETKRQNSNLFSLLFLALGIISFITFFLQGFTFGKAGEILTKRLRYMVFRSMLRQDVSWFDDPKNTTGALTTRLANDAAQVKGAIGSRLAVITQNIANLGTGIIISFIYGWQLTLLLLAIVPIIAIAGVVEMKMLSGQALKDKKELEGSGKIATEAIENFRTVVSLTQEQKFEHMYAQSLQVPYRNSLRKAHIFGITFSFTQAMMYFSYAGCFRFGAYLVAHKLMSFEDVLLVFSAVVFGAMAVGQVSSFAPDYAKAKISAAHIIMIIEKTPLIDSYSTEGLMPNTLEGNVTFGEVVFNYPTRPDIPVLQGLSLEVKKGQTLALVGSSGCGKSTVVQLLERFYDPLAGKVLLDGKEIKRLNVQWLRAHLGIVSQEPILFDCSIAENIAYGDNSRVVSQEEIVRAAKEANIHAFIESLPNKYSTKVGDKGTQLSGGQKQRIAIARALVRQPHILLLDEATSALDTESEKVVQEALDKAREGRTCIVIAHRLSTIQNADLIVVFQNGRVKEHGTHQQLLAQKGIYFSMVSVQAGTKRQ
As to the kind of experiment: MDR1-MDCK permeability / efflux (Biological Example 3). It is filed as in vitro ADME. As to conditions: MDR1-MDCK cells, pH 7.4; for efflux ratio at 1 μM: dog. Here is the method: The blood brain barrier (BBB) separates circulating blood from the extracellular fluid of the central nervous system (CNS). The passive membrane permeability (Papp) and MDR1 (P-glycoprotein) substrate efflux potential are determined using the MDR1-MDCK cell line as an in vitro model of the effective permeability of a compound through the BBB. A bidirectional assay was conducted in pre-plated MDR1-MDCK cells using a 12 or 96-well plate in the absence or presence of MDR1 inhibitor (GF120918 or Valspodar). Assays were run in duplicate in transport buffer (HBSS, pH 7.4) for 90 or 120 min (minutes) at 37° C., using a test article concentration of 1 μM. Monolayer integrity was confirmed using Lucifer yellow, and appropriate positive controls for passive permeability and MDR1 transport were included in each experiment. Following incubation, samples from donor and receiver compartments are removed and quenched with acetonitrile containing an appropriate internal standard (IS). Protein was precipitated by centrifugation for 10 min at 3220 g, and supernatants diluted in ultra-pure water (if necessary) prior to analysis by LC-MS/MS using appropriate MRM transitions for analytes and IS. Papp (apparent permeability expressed in cm/sec [centimeter/second]) values were calculated according to the following equation:
[formula] where VR is the solution volume in the receiver chamber (apical or basolateral side), Area is the surface area for the insert membrane), Time is incubation time expressed in seconds, CR is the peak area ratio (analyte/IS) in the receiver chamber, CA is the average of the initial and final concentrations in the donor chamber, and Co is the initial peak area ratio in the donor chamber. Papp was determined in both the apical to basolateral (A→B) and basolateral to apical (B→A) directions.
Monolayer efflux ratios (ER) were derived using the following equation: […]
Compounds with an MDR1-MDCK efflux ratio above 20 are not expected to cross the blood brain barrier.

Each structure is given as a SMILES string.

Sequence of LRRK2 G2019S enzyme (Q5S007 whole entry G2019S): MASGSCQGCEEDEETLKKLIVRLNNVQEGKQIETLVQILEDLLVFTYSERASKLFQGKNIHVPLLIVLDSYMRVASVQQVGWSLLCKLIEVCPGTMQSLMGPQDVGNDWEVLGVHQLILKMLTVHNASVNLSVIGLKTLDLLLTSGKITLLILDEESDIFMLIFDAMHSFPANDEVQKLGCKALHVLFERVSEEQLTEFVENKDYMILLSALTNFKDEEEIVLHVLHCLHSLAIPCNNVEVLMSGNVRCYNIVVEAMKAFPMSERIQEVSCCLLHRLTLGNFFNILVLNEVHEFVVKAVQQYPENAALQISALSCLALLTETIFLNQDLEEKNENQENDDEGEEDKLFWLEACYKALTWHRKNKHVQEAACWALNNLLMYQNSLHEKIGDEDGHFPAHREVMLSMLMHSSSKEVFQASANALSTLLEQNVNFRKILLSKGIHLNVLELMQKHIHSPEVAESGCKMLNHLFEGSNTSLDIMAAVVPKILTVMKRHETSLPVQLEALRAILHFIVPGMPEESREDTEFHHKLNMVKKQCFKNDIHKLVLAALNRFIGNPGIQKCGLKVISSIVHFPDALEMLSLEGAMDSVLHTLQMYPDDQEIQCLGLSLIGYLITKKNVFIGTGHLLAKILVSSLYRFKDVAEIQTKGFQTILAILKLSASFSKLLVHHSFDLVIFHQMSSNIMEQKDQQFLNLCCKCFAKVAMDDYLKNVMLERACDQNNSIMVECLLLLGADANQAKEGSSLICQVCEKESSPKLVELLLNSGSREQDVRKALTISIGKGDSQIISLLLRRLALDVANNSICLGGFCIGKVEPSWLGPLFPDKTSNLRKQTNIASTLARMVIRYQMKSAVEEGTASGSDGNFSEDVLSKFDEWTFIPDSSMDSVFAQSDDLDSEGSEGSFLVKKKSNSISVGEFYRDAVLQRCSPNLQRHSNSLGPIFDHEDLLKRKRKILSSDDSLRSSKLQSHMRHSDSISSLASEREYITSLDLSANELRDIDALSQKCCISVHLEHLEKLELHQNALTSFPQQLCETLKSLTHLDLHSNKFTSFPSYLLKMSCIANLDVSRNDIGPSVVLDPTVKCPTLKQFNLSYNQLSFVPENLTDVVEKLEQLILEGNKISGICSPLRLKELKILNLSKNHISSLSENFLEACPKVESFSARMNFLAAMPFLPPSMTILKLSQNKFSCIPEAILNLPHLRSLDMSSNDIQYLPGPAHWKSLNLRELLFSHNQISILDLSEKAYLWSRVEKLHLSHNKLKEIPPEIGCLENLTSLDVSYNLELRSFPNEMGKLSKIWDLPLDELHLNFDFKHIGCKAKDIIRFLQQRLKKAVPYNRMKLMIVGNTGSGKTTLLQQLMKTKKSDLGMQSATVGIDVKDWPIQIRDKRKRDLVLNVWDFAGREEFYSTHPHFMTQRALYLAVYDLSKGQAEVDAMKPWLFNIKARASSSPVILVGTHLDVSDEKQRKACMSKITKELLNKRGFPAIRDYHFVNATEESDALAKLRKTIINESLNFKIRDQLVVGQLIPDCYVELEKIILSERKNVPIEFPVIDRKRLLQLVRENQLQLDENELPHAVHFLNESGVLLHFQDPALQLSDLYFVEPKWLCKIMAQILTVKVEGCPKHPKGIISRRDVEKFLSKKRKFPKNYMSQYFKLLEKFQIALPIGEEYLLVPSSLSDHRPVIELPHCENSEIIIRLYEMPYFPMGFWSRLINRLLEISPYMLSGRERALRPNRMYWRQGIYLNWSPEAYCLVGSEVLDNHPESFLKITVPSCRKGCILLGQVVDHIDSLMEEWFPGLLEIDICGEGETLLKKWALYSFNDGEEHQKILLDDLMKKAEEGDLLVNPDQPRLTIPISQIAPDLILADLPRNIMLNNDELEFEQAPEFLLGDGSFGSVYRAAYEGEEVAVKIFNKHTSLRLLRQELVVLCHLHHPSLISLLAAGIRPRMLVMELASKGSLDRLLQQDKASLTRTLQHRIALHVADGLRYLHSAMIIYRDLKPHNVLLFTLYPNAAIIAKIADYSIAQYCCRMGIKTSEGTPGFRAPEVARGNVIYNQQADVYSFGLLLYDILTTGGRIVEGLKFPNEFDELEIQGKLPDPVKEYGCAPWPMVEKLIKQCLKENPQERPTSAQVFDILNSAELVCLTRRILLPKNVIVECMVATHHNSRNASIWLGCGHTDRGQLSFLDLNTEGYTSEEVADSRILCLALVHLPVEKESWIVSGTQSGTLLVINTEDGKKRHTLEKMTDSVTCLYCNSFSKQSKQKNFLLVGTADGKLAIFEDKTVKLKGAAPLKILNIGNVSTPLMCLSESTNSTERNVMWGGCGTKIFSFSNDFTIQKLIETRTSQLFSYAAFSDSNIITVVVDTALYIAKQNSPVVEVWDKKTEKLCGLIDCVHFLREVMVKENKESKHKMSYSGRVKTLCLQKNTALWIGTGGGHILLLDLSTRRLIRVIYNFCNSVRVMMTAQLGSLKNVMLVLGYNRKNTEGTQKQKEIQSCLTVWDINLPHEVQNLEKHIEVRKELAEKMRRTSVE

The IC50 is the concentration at which inhibition is half-maximal. The term efflux ratio denotes the permeability from basolateral to apical divided by that in the opposite direction, in the common usage. Turning to `CCNc1nc(Nc2cn([C@H]3C[C@H]3C(N)=O)nc2C2CC2)ncc1C(F)(F)F` (single isomer, unassigned) [Example 7, (1,2-cis)-2-(3-cyclopropyl-4-((4-(ethylamino)-5-(trifluoromethyl)pyrimidin-2-yl)amino)-1H-pyrazol-1-yl)cyclopropanecarboxamide], in data set [1], half-maximal inhibition (IC50) required 1.47 nM. Besides, the efflux ratio at 1 μM in data set [2] is 110. Besides, in data set [2] (efflux ratio, 1 μM), the “MDCK-MDR1 Efflux Avg” value is on record as 110.
As to `CCNc1nc(Nc2cc([C@H]3C[C@H]3C(N)=O)nn2C2CC2)ncc1C(F)(F)F` [Comparative Example A, reference compound], it took 1.41 nM to reach half-maximal inhibition in data set [1] (IC50). Also, in data set [2], the efflux ratio at 1 μM came to 144.
